Among the data in patent US9000022B2 (Exelixis Patent Company LLC, priority 2005, dated 2015) are EC50 and IC50 or EC50 (potency, activation or inhibition) values, retold here.

For one assay, the system named is LXRα and/or LXRβ. As to the kind of experiment: Co-transfection assay (LXRE luciferase reporter, CV-1 cells). Type of assay: cell-based, human. To be noted: read-out: activity (IC50 or EC50 for LXR), tested as described in Example 33, isoform not specified. The procedure, abridged: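 CV-1 cells transiently co-transfected with full-length human LXRα or LXRβ plus RXRα, an LXRE×1-Tk-luciferase reporter and a β-galactosidase control. Compounds incubated 20 h at 37 °C (≤1% DMSO; screen at 10 μM final); luciferase read after lysis. EC50/IC50 from 8-point half-log curves (4 wells per point, ≥3 experiments); efficacy relative to a reference agonist high control and DMSO.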
With `CCS(=O)(=O)c1cccc(-c2ccc(-n3cc(C(C)(C)O)nc3Cc3cccc(Cl)c3Cl)c(C)c2)c1` [Example 24, 2-(2-(2,3-dichlorobenzyl)-1-(3′-(ethylsulfonyl)-3-methylbiphenyl-4-yl)-1H-imidazol-4-yl)propan-2-ol], the EC50 was less than 1000 nM.

Staying with this assay, now noted: tested as described in Example 33; IC50 or EC50 for LXRα and/or LXRβ, isoform not specified; read-out: activity (IC50 or EC50 for LXR).
Take `CC(C)(O)c1cn(-c2ccc(-c3cccc(S(C)(=O)=O)c3)cc2)c(-c2cccc(F)c2Cl)n1` [Example 383, 2-{2-(2-chloro-3-fluorophenyl)-1-[3′-(methylsulfonyl)biphenyl-4-yl]-1H-imidazol-4-yl}propan-2-ol]: the IC50 or EC50 (potency, activation or inhibition) is less than 1000 nM.

Regarding `COc1ccc(-c2ccc(-n3cc(C(C)(C)O)nc3-c3cccc(Cl)c3Cl)cc2)cc1S(C)(=O)=O` [Example 455, 2-(2-(2,3-dichlorophenyl)-1-(4′-methoxy-3′-(methylsulfonyl)biphenyl-4-yl)-1H-imidazol-4-yl)propan-2-ol], the IC50 or EC50 (potency, activation or inhibition) was less than 1000 nM.

For the compound `CS(=O)(=O)c1cccc(-c2ccc(-n3cc(C(=O)NCCF)nc3-c3c(Cl)cccc3Cl)c(Cl)c2)c1` [Example 460, 1-(3-chloro-3′-(methyl-sulfonyl)biphenyl-4-yl)-2-(2,6-dichlorophenyl)-N-(2-fluoroethyl)-1H-imidazole-4-carboxamide], the IC50 or EC50 (potency, activation or inhibition) is less than 1000 nM.

Consider `CCS(=O)(=O)c1cccc(-c2ccc(-n3cc(C(C)(C)O)nc3-c3ccccc3Cl)c(Cl)c2)c1` [Example 137, 2-(1-(3-chloro-3′-(ethyl-sulfonyl)biphenyl-4-yl)-2-(2-chlorophenyl)-1H-imidazol-4-yl)propan-2-ol], for which the IC50 or EC50 (potency, activation or inhibition) was less than 1000 nM.

In the case of `COc1ccc(-c2ccc(-n3cc(C(C)(C)O)nc3-c3c(F)cccc3Cl)c(Cl)c2)cc1S(C)(=O)=O` [Example 454, 2-(1-(3-chloro-4′-methoxy-3′-(methylsulfonyl)biphenyl-4-yl)-2-(2-chloro-6-fluorophenyl)-1H-imidazol-4-yl)propan-2-ol], the IC50 or EC50 (potency, activation or inhibition) lay within 1000 to 10000 nM.

Turning to `C/C(=N\O)c1cn(-c2ccc(-c3cccc(S(C)(=O)=O)c3)cc2)c(-c2ccccc2C(F)(F)F)n1` [Example 412, 1-{1-[3′-(methylsulfonyl)biphenyl-4-yl]-2-[2-(trifluoromethyl)phenyl]-1H-imidazol-4-yl}ethanone oxime], the IC50 or EC50 (potency, activation or inhibition) was less than 1000 nM.

In the case of `CC(C)(O)c1cn(-c2ccc(-c3ccc(CO)c(S(C)(=O)=O)c3)cc2Cl)c(-c2c(Cl)cccc2Cl)n1` [Example 149, 2-(1-(3-chloro-4′-(hydroxymethyl)-3′-(methylsulfonyl)biphenyl-4-yl)-2-(2,6-dichlorophenyl)-1H-imidazol-4-yl)propan-2-ol], the IC50 or EC50 (potency, activation or inhibition) is less than 1000 nM.

With `CC(C)(CO)c1cn(-c2ccc(-c3cccc(S(C)(=O)=O)c3)cc2)c(-c2c(Cl)cccc2Cl)n1` [Example 479, 2-(2-(2,6-dichlorophenyl)-1-(3′-(methylsulfonyl)biphenyl-4-yl)-1H-imidazol-4-yl)-2-methylpropan-1-ol], the IC50 or EC50 (potency, activation or inhibition) was less than 1000 nM.

With `Cc1cc(-c2cccc(S(C)(=O)=O)c2)ccc1-n1cc(C(C)(C)O)nc1-c1ccccc1Cl` [Example 418, 2-{2-(2-chlorophenyl)-1-[3-methyl-3′-(methylsulfonyl)biphenyl-4-yl]-1H-imidazol-4-yl}propan-2-ol], the IC50 or EC50 (potency, activation or inhibition) is less than 1000 nM.

Consider `CC(C)(O)c1cn(-c2ccc(-c3ccc(CO)c(S(C)(=O)=O)c3)cc2)c(-c2c(F)cccc2F)n1` [Example 103, 2-(2-(2,6-difluorophenyl)-1-(4′-(hydroxymethyl)-3′-(methyl-sulfonyl)biphenyl-4-yl)-1H-imidazol-4-yl)propan-2-ol], for which the IC50 or EC50 (potency, activation or inhibition) lay in the range of 1000 to 10000 nM.

For `Cc1cc(-c2cccc(S(C)(=O)=O)c2)ccc1-n1cc(C(=O)NCC(F)(F)F)nc1-c1c(Cl)cccc1Cl` [Example 85, 2-(2,6-dichlorophenyl)-1-(3-methyl-3′-(methylsulfonyl)biphenyl-4-yl)-N-(2,2,2-trifluoroethyl)-1H-imidazole-4-carboxamide], the IC50 or EC50 (potency, activation or inhibition) was less than 1000 nM.

Take `CCN(CC)C(=O)c1cn(-c2ccc(-c3cccc(S(C)(=O)=O)c3)cc2C)c(-c2c(Cl)cccc2Cl)n1` [Example 86, 2-(2,6-dichlorophenyl)-N,N-diethyl-1-(3-methyl-3′-(methylsulfonyl)biphenyl-4-yl)-1H-imidazole-4-carboxamide]: the IC50 or EC50 (potency, activation or inhibition) is less than 1000 nM.

Turning to `C/C(=N\O)c1cn(-c2ccc(-c3cccc(S(C)(=O)=O)c3)cc2C)c(-c2ccccc2C(C)C)n1` [Example 76, (E)-1-(2-(2-isopropylphenyl)-1-(3-methyl-3′-(methylsulfonyl)biphenyl-4-yl)-1H-imidazol-4-yl)ethanone oxime], the IC50 or EC50 (potency, activation or inhibition) was less than 1000 nM.

For `CCOC(=O)c1cn(-c2ccc(Br)cc2)c(-c2ccccc2Cl)n1` [Example 377, ethyl 1-(4-bromophenyl)-2-(2-chlorophenyl)-1H-imidazole-4-carboxylate], the IC50 or EC50 (potency, activation or inhibition) was 1000 to 10000 nM.

In the case of `CC(C)(O)c1cn(-c2ccc(-c3ccc(C(C)(C)O)c(S(C)(=O)=O)c3)cc2)c(-c2cccc(Cl)c2Cl)n1` [Example 105, 2-(2-(2,3-dichlorophenyl)-1-(4′-(2-hydroxypropan-2-yl)-3′-(methylsulfonyl)biphenyl-4-yl)-1H-imidazol-4-yl)propan-2-ol], the IC50 or EC50 (potency, activation or inhibition) is less than 1000 nM.

As to `CCS(=O)(=O)c1cccc(-c2ccc(-n3cc(C(C)(C)O)nc3-c3ccccc3Cl)cc2)c1` [Example 415, 2-{2-(2-chlorophenyl)-1-[3′-(ethylsulfonyl)biphenyl-4-yl]-1H-imidazol-4-yl}propan-2-ol], the IC50 or EC50 (potency, activation or inhibition) lay within 1000 to 10000 nM.

On to `CCS(=O)(=O)c1cccc(-c2ccc(-n3cc(C(C)(C)O)nc3-c3ccccc3C(F)(F)F)c(C)c2)c1` [Example 184, 2-(1-(3′-(ethylsulfonyl)-3-methyl-biphenyl-4-yl)-2-(2-(trifluoro-methyl)phenyl)-1H-imidazol-4-yl)propan-2-ol], for which the IC50 or EC50 (potency, activation or inhibition) is less than 1000 nM.

`CCS(=O)(=O)c1cccc(-c2ccc(-n3cc(C(C)(C)O)nc3-c3c(Cl)cccc3Cl)c(F)c2)c1` [Example 116, 2-(2-(2,6-dichlorophenyl)-1-(3′-(ethylsulfonyl)-3-fluorobiphenyl-4-yl)-1H-imidazol-4-yl)propan-2-ol]: the IC50 or EC50 (potency, activation or inhibition) is less than 1000 nM.

For the compound `CCS(=O)(=O)c1cccc(-c2ccc(-n3cc(C(C)(C)O)nc3-c3ccccc3C(C)C)c(C)c2)c1` [Example 196, 2-(1-(3′-(ethylsulfonyl)-3-methyl-biphenyl-4-yl)-2-(2-isopropyl-phenyl)-1H-imidazol-4-yl)propan-2-ol], the IC50 or EC50 (potency, activation or inhibition) was less than 1000 nM.

As for `CC(C)(O)c1nc(-c2ccccc2C(F)(F)F)n(-c2ccc(-c3cccc(S(C)(=O)=O)c3)cc2)c1Cl` [Example 403, 2-{5-chloro-1-[3′-(methyl-sulfonyl)biphenyl-4-yl]-2-[2-(trifluoro-methyl)phenyl]-1H-imidazol-4-yl}propan-2-ol], the IC50 or EC50 (potency, activation or inhibition) was less than 1000 nM.

Take `CCS(=O)(=O)c1cccc(-c2ccc(-n3cc(C(C)(C)O)nc3-c3c(Cl)cccc3Cl)cc2)c1` [Example 91, 2-(2-(2,6-dichlorophenyl)-1-(3′-(ethylsulfonyl)biphenyl-4-yl)-1H-imidazol-4-yl)propan-2-ol]: the IC50 or EC50 (potency, activation or inhibition) fell in the range of 1000 to 10000 nM.
